In brackets after ≈: the same amount, converted by molar mass. Several values for one entry are separate records, joined by “and”; a condition that tells them apart may be missing. Identical values can stand only once.
Columns and labels:
Type in all cases: functional
Escherichia coli [1] = assay: Antimicrobial activity against Escherichia coli ATCC 25922 by agar dilution method
Escherichia coli [2] = assay: Antimicrobial activity against fluoroquinolone-resistant Escherichia coli clinical isolate by agar dilution method
Escherichia coli [3] = assay: Antimicrobial activity against fluoroquinolone-resistant Escherichia coli clinical isolate by Etest
Escherichia coli [4] = assay: Antimicrobial activity against fluoroquinolone-sensitive Escherichia coli clinical isolate by Etest

SMILES | MIC (Escherichia coli [1]) | MIC (Escherichia coli [2]) | MIC (Escherichia coli [3]) | MIC (Escherichia coli [4]) | MIC (Escherichia coli [4]; Escherichia coli, read-out: MIC)
COc1c(N2CCNC(C)C2)c(F)cc2c(=O)c(C(=O)O)cn(C3CC3)c12 (stereo unspecified) [GATIFLOXACIN] | 0.004 µg/mL (≈ 0.0107 µM) | 23 µg/mL (≈ 61.3 µM) | 8 µg/mL (≈ 21.3 µM) | – | –
C[C@H]1COc2c(N3CCN(C)CC3)c(F)cc3c(=O)c(C(=O)O)cn1c23.C[C@H]1COc2c(N3CCN(C)CC3)c(F)cc3c(=O)c(C(=O)O)cn1c23.O [LEVOFLOXACIN] | – | 39 µg/mL | 8 µg/mL | 0.023 µg/mL | 0.042 µg/mL
CCn1cc(C(=O)O)c(=O)c2cc(F)c(N3CCNCC3)cc21 [NORFLOXACIN] | 0.03 µg/mL (≈ 0.0939 µM) | 232 µg/mL (≈ 727 µM) | 16 µg/mL (≈ 50.1 µM) | 0.06 µg/mL and 0.02 µg/mL | –
